Measurements taken from patent EP2924045A1, “New agents for the treatment of cancer” (Medizinische Universität Wien, priority 2014, dated 2015).

What was measured:
[1] = Stability test in minimal essential medium; format: physicochemical
cell viability = assay: MTT-based cell viability under normoxic and hypoxic conditions; conditions: 72 h treatment
Protocol: (§1) Cells were plated (2x10^3 cells/well) in 96-well plates and allowed to recover for 24 h. Subsequently, the dissolved drugs were added. After 72 h exposure, the proportion of viable cells was determined by MTT assay following the manufacturer's recommendations (EZ4U, Biomedica, Vienna, Austria). Cytotoxicity was expressed as IC50 values calculated from full dose-response curves using Graph Pad Prism software.
(§2) Cells were plated in 96- or 6-well plates, respectively, in an HERA cell 150i (Thermo Scientific) with at 1% O2/5% CO2 level for indicated time points (72 h and 4 h for MTT assays and protein isolation, respectively) before analysis/harvesting.
As a first step, the anticancer activity of the novel Co(III) complex was tested in comparison to the metal-free ligand under normoxic and hypoxic conditions as shown in Figures 5 and 6A after 72 h treatment cell viability was measured using a MTT-based system. Values given are means ± standard deviation (SD) of one representative experiment performed in triplicates (Statistical analysis: t-test; ***p< 0.001 ^a: difference between L2 and 1a; ^b: difference between 1a normoxia and 1a hypoxia).

EGFR = assay: Western blot of EGFR inhibition in A431 and Calu3 cells under normoxia and hypoxia; format: cell-based; conditions: 4 h treatment, EGF 50 ng/ml for 15 min
Protocol: as §2
Proteins were isolated, resolved by SDS/PAGE, and transferred onto a polyvinylidenedifluoride membrane for Western blotting by routine methods. The following antibodies were used: EGFR, pEGFR (Tyr1068), ERK1/2 (p44/42 MAPK), and pERK (Thr202/Tyr204) (all polyclonal rabbit - Cell Signaling Technology, Beverly, MA, USA). β-actin was monoclonal mouse AC-15 (Sigma). All primary antibodies were used in 1:1000 dilutions. Additionally, horseradish peroxidase-labelled secondary antibodies from Santa Cruz Biotechnology were used at working dilutions of 1:10000.

A431 xenografts = assay: A431 xenograft tumour growth in SCID mice; format: in vivo; conditions: 5 mg/kg i.v. or 25 mg/kg i.p.; efficacy comparable to erlotinib, especially upon intraperitoneal application
Description: (§3) Six- to 8-week-old female CB-17 scid/scid (SCID) mice were purchased from Harlan Laboratories (San Pietro al Natisone, Italy). The animals were kept in a pathogen-free environment and every procedure was done in a laminar airflow cabinet. The experiments were done according to the regulations of the Ethics Committee for the Care and Use of Laboratory Animals at the Medical University Vienna, The U.S. Public Health Service Policy on Human Care and Use of Laboratory Animals as well as the United Kingdom Coordinating Committee on Cancer Prevention Research's Guidelines for the Welfare of Animals in Experimental Neoplasia.
(§4) This is of interest, as Calu3 xenografts are characterized by a rather specific tumor histology, where small tumour islands are surrounded by murine fibroblasts. Consequently, in these xenografts a larger tumor volume might be necessary for the development of hypoxic conditions and, thus, activation of 1b.

Calu3 xenografts = assay: Calu3 xenograft tumour growth in SCID mice; format: in vivo; conditions: when a tumour size of more than 200 mm^2 was reached
Description: as §3, §4

A431 = assay: MTT cytotoxicity assay, A431 cells; format: cell-based; conditions: Homo sapiens, A-431; MTT assay after 72 h treatment; wild-type EGFR-overexpressing erlotinib-sensitive A431; read-out: Inhibition of Cell Growth (IC50 µM) A431
Protocol: Cell cultures were periodically checked for Mycoplasma contamination.
Subsequently, the dissolved drugs were added. […] Cytotoxicity was expressed as IC50 values calculated from full dose-response curves using Graph Pad Prism software.

H1975 = assay: MTT cytotoxicity assay, H1975 cells; format: cell-based; conditions: Homo sapiens, NCI-H1975; MTT assay after 72 h treatment; H1975 with resistance-conferring EGFR mutation T790M; read-out: Inhibition of Cell Growth (IC50 µM) H1975
Protocol: The human NSCLC cell lines A431 (wt EGFR-overexpressing and erlotinib-sensitive) and H1975 (EGFR mutation at L858R as well as T790M and erlotinib-resistant) were purchased from American Type Culture Collection (ATCC), Rockville, MD, USA and cultivated unless otherwise indicated in humidified incubators (37°C, 21% O2, 5% CO2) in RPMI 1640 medium containing 10% fetal calf serum (PAA, Linz Austria). Cell cultures were periodically checked for Mycoplasma contamination.
as §1
(§5) As a first step MTT assays (after 72 h treatment) performed in wild-type EGFR-overexpressing erlotinib-sensitive A431 and Calu3 cells as well as in H1975 cells, which harbour a resistance-conferring EGFR mutation T790M (Table 1). […] Only in Calu3 cells activity in the low µM range was observed. In contrast, L2 containing the smallest chelating moiety had IC50 values in the low µM range in both erlotinib-responsive models. […] Table 1. Anticancer activity (IC50 values)

Calu3 = assay: MTT cytotoxicity assay, Calu3 cells; format: cell-based; conditions: Homo sapiens, Calu-3; MTT assay after 72 h treatment; wild-type EGFR-overexpressing erlotinib-sensitive Calu3; read-out: Inhibition of Cell Growth (IC50 µM) Calu3
Protocol: as §1, §5

EGFR signaling pathway = assay: Western blot of EGFR signaling (pERK, pEGFR) in EGF-stimulated cells; format: cell-based; conditions: EGF-stimulated cells (HCC827 per Fig. 3), 4 h drug incubation, Western blotting

Row | stable in minimal essential medium [1] | SMILES | IC50 (A431) [µM] | IC50 (H1975) [µM] | IC50 (Calu3) [µM] | further results
1 | at least 24 h | CC(=O)C=C(C)[O-].CC(=O)C=C(C)[O-].F[P-](F)(F)(F)(F)F.NCCNc1ccc2ncnc(Nc3cccc(Br)c3)c2c1.[Co+3] [Compound 1a, Bis(2,4-pentanedionato) N^6-(2-aminoethyl)-N^4-(3-bromophenyl) quinazoline-4,6-diamine cobalt(III) hexafluorophosphate] | – | – | – | anticancer activity, hypoxia (cell viability; hypoxia (1% O2)): significantly increased; anticancer activity (cell viability), normoxic conditions (cell viability; normoxic conditions, up to the highest tested concentration of 25 µM): widely inactive; EGFR inhibitory potential, hypoxia (EGFR; hypoxia): potent activity similar to the metal-free ligand L2; EGFR inhibitory potential, normoxic conditions (EGFR; normoxic conditions): distinctly reduced
2 | at least 24 h | CC(=O)C=C(C)[O-].CC(=O)C=C(C)[O-].NCCNc1ccc2ncnc(Nc3cccc(Br)c3)c2c1.[Cl-].[Co+3] [Compound 1b, Bis(2,4-pentanedionato) N^6-(2-aminoethyl)-N^4-(3-bromophenyl) quinazoline-4,6-diamine cobalt(III) chloride] | – | – | – | tumor growth of A431 xenografts (A431 xenografts): potently inhibited tumor growth; tumor growth of Calu3 xenografts (Calu3 xenografts): induced distinct tumor regression
3 | – | Brc1cccc(Nc2ncnc3ccc(N=Cc4ccccn4)cc23)c1 [Compound L1, N^4-(3-bromophenyl)-N^6-(pyridin-2-ylmethylene) quinazoline-4,6-diamine] | > 25 | 20.4 ± 3.8 | 3.5 ± 0.08 | –
4 | – | Cl.Cl.NCCNc1ccc2ncnc(Nc3cccc(Br)c3)c2c1 [Compound L2, N^6-(2-aminoethyl)-N^4-(3-bromophenyl)quinazoline-4,6-diamine dihydrochloride] | 9.15 ± 0.47 | 15.5 ± 2.18 | 2 ± 0.52 | inhibitory effects on ERK and EGFR phosphorylation levels (EGFR signaling pathway): most potent EGFR inhibitor with activity similar to erlotinib
5 | – | C#Cc1cccc(Nc2ncnc3cc(OCCOC)c(OCCOC)cc23)c1 [erlotinib, reference compound] | – | > 25 | 0.74 ± 0.02 | –
